Reference: patent US20140275183A1, “AGENT FOR REDUCING SIDE EFFECTS OF KINASE INHIBITOR” (Ajinomoto Co., Inc., priority 2011, published 2014)

Assays:
[1] = system: CDAA diet-induced liver cancer model rats; assay: CDAA (choline-deficient L-amino acid defined) diet-induced liver cancer model rats, combined intake of sorafenib and BCAA; assay type: in vivo, Fischer 344 rats
Text: Using CDAA (choline-deficient L-amino acid defined) diet-induced liver cancer model rats, the effects of the combined intake of sorafenib and branched-chain amino acids (BCAA) were investigated. The CDAA diet used a commercially available choline-deficient diet (#518753: Choline deficient and iron supplemented L-amino acid defined rat diet, manufactured by Dyets Inc.).
Six-week old Fischer 344 rats were divided into a CDAA diet intake group, a sorafenib only intake group, and a BCAA combined intake group (N=15 for each group), and the test diet was provided freely. For the CDAA diet intake group, only the CDAA diet was supplied as the test diet. For the sorafenib only intake group, a CDAA diet mixed with an amount of sorafenib tosylate tablets (Nexavar (a registered trademark) tablets 200 mg, manufactured by Bayer Pharma AG) sufficient to provide an intake of sorafenib of 16 mg/kg/day (800 mg/50 kg/day) (hereafter referred to as the “CDAA/sorafenib diet”) was supplied. For the BCAA combined intake group, a diet prepared by mixing the CDAA/sorafenib diet supplied to the sorafenib only intake group with 2.5% by mass of a BCAA formulation (Livact (a registered trademark) granules, manufactured by Ajinomoto Co., Inc.) (hereafter referred to as the “CDAA/sorafenib/BCAA diet”) was supplied. The weight ratio between isoleucine, leucine and valine in the BCAA formulation was 1:2:1.2 (isoleucine:0.952 g, leucine: 1.904 g, and valine: 1.144 g).
Each individual was autopsied either at the time of death or after 56 weeks from the start of the test (from supply of the test diet), and the effect of treatment continuation was investigated on the basis of the hepatic fibrosis inhibitory effect, the hepatocarcinogenesis rate and the survival rate.
Further, the presence or absence of hepatic fibrosis was determined on the basis of the result of Azan staining of a liver tissue section, and the result of measuring the concentration of HYP (hydroxyproline) within the liver. The presence or absence of hepatocarcinogenesis was evaluated by immunostaining a tissue section of the liver with an antibody to the precancerous marker GST-P (glutathione S-transferase placental form), and inspecting the tissue section for the presence of staining.

[2] = system: Huh7 cells; assay: antitumor action enhancement effect, Huh7 cells implanted subcutaneously in nude mice; assay type: in vivo, BALB/c nude mice; settings: sorafenib oral 5 mg/kg for 2 weeks then 30 mg/kg for 5 days, ± feed containing 3% BCAA; three weeks after start; FIG. 3
Description: Huh7 cells were implanted subcutaneously in BALB/c nude mice in an amount of 1×10^7 cell/mouse.
After one week, the mice were split into groups based on tumor diameter, and the groups were subjected to 2 weeks of 5 mg/kg sorafenib oral administration±food supply containing 3% BCAA (with the sorafenib administered 5 days/week).
In the third week of administration, the sorafenib dose was increased from 5 mg/kg to 30 mg/kg, and oral administration was continued for 5 days. During this time, supply of the feed containing 3% BCAA was continued.
Three weeks after the start of administration, the tumor diameter of each group was measured, and the average value+SE for the tumor volume was calculated. The tumor volume was calculated as tumor major axis/2×(minor axis)^2.

[3] = sorafenib 16 mg/kg/day in CDAA diet, with or without 2.5% BCAA formulation

CNC(=O)c1cc(Oc2ccc(NC(=O)Nc3ccc(Cl)c(C(F)(F)F)c3)cc2)ccn1 [sorafenib, 4-[4-[[4-chloro-3-(trifluoromethyl)phenyl]carbamoylamino]phenoxy]-N-methylpyridine-2-carboxamide]
number of rats in which hepatic fibrosis or precancerous lesions were observed, compared with the CDAA diet intake group ([1]; Azan staining, liver HYP, GST-P immunostaining, autopsy at death or after 56 weeks): fewer | bleeding (side effect) [1, 3]: a tendency for bleeding to occur in the gastrointestinal tract, including the anal region, was also observed | loss of appetite (side effect) [1, 3]: a loss of appetite due to gastrostenosis was also noted | redness (cutaneous side effect) [1, 3]: redness was noted not only on the four legs, but also on the trunk and the skin | degree of shrinkage in the tumor volume compared with the control group [2]: unchanged
